Measurements as given in PMC5554537 (Frontiers in Pharmacology, 2017).

How the values were obtained:
[1] = Compartmental plasma PK model; format: in vivo
Excerpt: This model, shown schematically in Figure 9, is based on total (free + bound) plasma concentrations; the major metabolites (M14, M13, and M18) are explicit and clearance of SN30000 occurs only by reduction to M14. The i.p. bioavailability of SN30000 was modeled with an additional term for loss from the peritoneal compartment (kloss).

[2] = Stability in mouse plasma (QC samples); format: physicochemical
Excerpt: (§1) using octa-deuterated internal standards of SN30000, M13 and M14 synthesised as previously reported (Wang et al., 2012). Intra- and inter-day precision (expressed as relative standard deviation (RSD) and accuracy (expressed as percentage of the nominal value) were deter mined by analy sis of replicates (n=6) of low and high quality control (QC) samples on three different days. The lower limit of quantitation (LLOQ) was defined as the lowest concentration providing RSD and accuracy < 20%. Recovery from plasma and liver ho mogenates was tested at the three QC levels. The recoveries were evaluated by comparing extracted samples with blank extracted solutions spiked with analytes of the same amount.
(§2) Matrix effects, defined as the change in response due to the presence of other substances in the samples, were evaluated by comparing the analytes diluted into the blank plasma or liver extracted solution with that of the same stock solutions diluted in water. Three different concentration levels (low, medium and high QC) were evaluated by analysing three samples at each level. Accuracy , precision, recovery and matrix effects were all acceptable over the concentration ranges evaluated for plas ma (Supplementary Table 1) and for liver homogenates (Supplementary Table 2).
(§3) Stability of the analytes in mouse plasma (Supplementary Table 3) or liver homogenate (Supplementary Table 4) was confirmed during holding of QC samples on ice for up to 2 h under nor mal laboratory lighting, although there was a trend towards loss of SN30000 in plasma samples held in clear microcentrifuge tubes which may reflect the known photosensitivity of the compound (Gu et al., 2014). This loss was reduced by use of red microcentrifuge tubes, and eliminated by black tubes. Stability in both matrices was also confir med for one month storage at -80°C and for three freeze-thaw cycles, while MeOH-deproteinised samples w ere stable for 12 h at 4°C in the autosampler (Supplementary Tables

in vivo = settings: NIH-III, mouse, plasma, ip
[3] = Stability in mouse liver homogenates (QC samples); format: physicochemical
Excerpt: as §1, §2, §3

[4] = plasma deproteinised in 3 vol MeOH, 12 h autosampler at 4°C, nominal SN30000 0.5, M14 0.25, M13 0.1 µM
[5] = plasma deproteinised in 3 vol MeOH, 12 h autosampler at 4°C, nominal SN30000 5, M14 2.5, M13 1 µM
[6] = plasma deproteinised in 3 vol MeOH, 12 h autosampler at 4°C, nominal SN30000 50, M14 25, M13 10 µM
[7] = plasma, 1 month at -80°C, nominal SN30000 0.5, M14 0.25, M13 0.1 µM
[8] = plasma, 1 month at -80°C, nominal SN30000 5, M14 2.5, M13 1 µM
[9] = plasma, 1 month at -80°C, nominal SN30000 50, M14 25, M13 10 µM
[10] = plasma, 1 h on ice, black vial, nominal SN30000 0.5, M14 0.25, M13 0.1 µM
[11] = plasma, 1 h on ice, black vial, nominal SN30000 5, M14 2.5, M13 1 µM
[12] = plasma, 1 h on ice, black vial, nominal SN30000 50, M14 25, M13 10 µM
[13] = plasma, 1 h on ice, clear vial, nominal SN30000 0.5, M14 0.25, M13 0.1 µM
[14] = plasma, 1 h on ice, clear vial, nominal SN30000 5, M14 2.5, M13 1 µM
[15] = plasma, 1 h on ice, clear vial, nominal SN30000 50, M14 25, M13 10 µM
[16] = plasma, 1 h on ice, red vial, nominal SN30000 0.5, M14 0.25, M13 0.1 µM
[17] = plasma, 1 h on ice, red vial, nominal SN30000 5, M14 2.5, M13 1 µM
[18] = plasma, 1 h on ice, red vial, nominal SN30000 50, M14 25, M13 10 µM
[19] = plasma, 2 h on ice, black vial, nominal SN30000 0.5, M14 0.25, M13 0.1 µM
[20] = plasma, 2 h on ice, black vial, nominal SN30000 5, M14 2.5, M13 1 µM
[21] = plasma, 2 h on ice, black vial, nominal SN30000 50, M14 25, M13 10 µM
[22] = plasma, 2 h on ice, clear vial, nominal SN30000 0.5, M14 0.25, M13 0.1 µM
[23] = plasma, 2 h on ice, clear vial, nominal SN30000 5, M14 2.5, M13 1 µM
[24] = plasma, 2 h on ice, clear vial, nominal SN30000 50, M14 25, M13 10 µM
[25] = plasma, 2 h on ice, red vial, nominal SN30000 0.5, M14 0.25, M13 0.1 µM
[26] = plasma, 2 h on ice, red vial, nominal SN30000 5, M14 2.5, M13 1 µM
[27] = plasma, 2 h on ice, red vial, nominal SN30000 50, M14 25, M13 10 µM
[28] = plasma, three freeze-thaw cycles, nominal SN30000 0.5, M14 0.25, M13 0.1 µM
[29] = plasma, three freeze-thaw cycles, nominal SN30000 5, M14 2.5, M13 1 µM
[30] = plasma, three freeze-thaw cycles, nominal SN30000 50, M14 25, M13 10 µM
[31] = liver homogenate deproteinised in 3 vol MeOH, 12 h autosampler at 4°C, nominal SN30000 0.5, M14 0.25, M13 0.1 µM
[32] = liver homogenate deproteinised in 3 vol MeOH, 12 h autosampler at 4°C, nominal SN30000 5, M14 2.5, M13 1 µM
[33] = liver homogenate deproteinised in 3 vol MeOH, 12 h autosampler at 4°C, nominal SN30000 50, M14 25, M13 10 µM
[34] = liver homogenate, 1 month at -80°C, nominal SN30000 5, M14 2.5, M13 1 µM
[35] = liver homogenate, 1 month at -80°C, nominal SN30000 50, M14 25, M13 10 µM
[36] = liver homogenate, 1h on ice, clear tubes, nominal SN30000 0.5, M14 0.25, M13 0.1 µM
[37] = liver homogenate, 1h on ice, clear tubes, nominal SN30000 5, M14 2.5, M13 1 µM
[38] = liver homogenate, 1h on ice, clear tubes, nominal SN30000 50, M14 25, M13 10 µM
[39] = liver homogenate, 2h on ice, nominal SN30000 0.5, M14 0.25, M13 0.1 µM
[40] = liver homogenate, 2h on ice, nominal SN30000 5, M14 2.5, M13 1 µM
[41] = liver homogenate, 2h on ice, nominal SN30000 50, M14 25, M13 10 µM
[42] = liver homogenate, three freeze-thaw cycles, nominal SN30000 0.5, M14 0.25, M13 0.1 µM
[43] = liver homogenate, three freeze-thaw cycles, nominal SN30000 5, M14 2.5, M13 1 µM
[44] = liver homogenate, three freeze-thaw cycles, nominal SN30000 50, M14 25, M13 10 µM

For `c1c2c(cc3nc(CCCN4CCOCC4)nnc13)CCC2` [M13], the “Central compartment volume V1” value ([1]; 1-Oxide and Nor-oxide values fixed) was 2.2 L/kg, the clearance ([1]; NIH-III, mouse, plasma, other: i.p. and i.v. datasets fitted simultaneously, model clearance of the compound, read-out: CL (converted)) was 1280 mL/min/kg and the Vd ([1]; NIH-III, mouse, plasma, other: i.p. and i.v. datasets fitted simultaneously, read-out: Steady state volume VSS) was 11.6 L/kg. For the same compound, the “Approximate % suppression per °C of CL” value ([1]; mouse, in vivo) was ~23%, the “Peripheral compartment volume V2” value ([1]; mouse, in vivo) was 9.38 L/kg and the Bias [2, 4] was -3.42%. The Measured conc [2, 4] was 0.10 µM, the Bias [2, 5] was -1.26% and the Measured conc [2, 5] was 0.99 µM. For the same compound, the Bias [2, 6] was 5.41%, the Measured conc [2, 6] was 10.54 µM and the Bias [2, 7] was 1.68%. The Measured conc [2, 7] was 0.10 µM, the Bias [2, 8] was 1.94% and the Measured conc [2, 8] was 1.00 µM. For the same compound, the Bias [2, 9] was 1.85%, the Measured conc [2, 9] was 11.05 µM and the Bias [2, 10] was -7.00%. The Measured conc [2, 10] was 0.09 µM, the Bias [2, 11] was -7.17% and the Measured conc [2, 11] was 0.93 µM. The Bias [2, 12] was 5.90%, the Measured conc [2, 12] was 10.59 µM and the Bias [2, 13] was -7.05%. It also gave a Measured conc [2, 13] of 0.09 µM, a Bias [2, 14] of -3.76% and a Measured conc [2, 14] of 0.96 µM. It also gave a Bias [2, 15] of -3.61%, a Measured conc [2, 15] of 9.64 µM and a Bias [2, 16] of -5.72%. For the same compound, the Measured conc [2, 16] was 0.09 µM, the Bias [2, 17] was -5.29% and the Measured conc [2, 17] was 0.95 µM. It also gave a Bias [2, 18] of 0.10%, a Measured conc [2, 18] of 10.01 µM and a Bias [2, 19] of -0.52%. It also gave a Measured conc [2, 19] of 0.10 µM, a Bias [2, 20] of 1.13% and a Measured conc [2, 20] of 1.01 µM. For the same compound, the Bias [2, 21] was 0.55%, the Measured conc [2, 21] was 10.06 µM and the Bias [2, 22] was -9.85%. It also gave a Measured conc [2, 22] of 0.09 µM, a Bias [2, 23] of -4.92% and a Measured conc [2, 23] of 0.95 µM. It also gave a Bias [2, 24] of -8.95%, a Measured conc [2, 24] of 9.10 µM and a Bias [2, 25] of -7.29%. It also gave a Measured conc [2, 25] of 0.09 µM, a Bias [2, 26] of -4.71% and a Measured conc [2, 26] of 0.95 µM. For the same compound, the Bias [2, 27] was -3.91%, the Measured conc [2, 27] was 9.61 µM and the Bias [2, 28] was -4.05%. The Measured conc [2, 28] was 0.10 µM, the Bias [2, 29] was -2.61% and the Measured conc [2, 29] was 0.97 µM. The Bias [2, 30] was 4.39%, the Measured conc [2, 30] was 10.44 µM and the AUC (in vivo; 1.86 mg/kg) was 0.0029 µM·h. It also gave a Cmax (in vivo; 1.86 mg/kg) of 8 nM, a half-life (in vivo; 1.86 mg/kg) of 19.8 min and an AUC (in vivo; 18.6 mg/kg) of 0.079 µM·h. The Cmax (in vivo; 18.6 mg/kg) was 202 nM, the half-life (in vivo; 18.6 mg/kg) was 39.1 min and the AUC (in vivo; 78.3 mg/kg) was 2.64 µM·h. For the same compound, the Cmax (in vivo; 78.3 mg/kg) was 3850 nM, the half-life (in vivo; 78.3 mg/kg) was 31.8 min and the AUC (in vivo; 92.8 mg/kg) was 5.43 µM·h. The Cmax (in vivo; 92.8 mg/kg) was 6630 nM, the half-life (in vivo; 92.8 mg/kg) was 26.2 min and the AUC (in vivo; 186 mg/kg) was 14.3 µM·h. It also gave a half-life (in vivo; 186 mg/kg) of 53.3 min, a Bias [3, 31] of 7.07% and a Measured conc [3, 31] of 0.11 µM. For the same compound, the Bias [3, 32] was 10.75%, the Measured conc [3, 32] was 1.11 µM and the Bias [3, 33] was 6.40%. It also gave a Measured conc [3, 33] of 10.64 µM, a Measured conc ([3]; liver homogenate, 1 month at -80°C, nominal SN30000 0.5, M14 0.25, M13 0.1 µM) of 0.11 µM and a Bias [3, 34] of 4.04%. The Measured conc [3, 34] was 1.03 µM, the Bias [3, 35] was 5.05% and the Measured conc [3, 35] was 9.12 µM. It also gave a Bias [3, 36] of 11.64%, a Measured conc [3, 36] of 0.11 µM and a Bias [3, 37] of 10.33%. It also gave a Measured conc [3, 37] of 1.10 µM, a Bias [3, 38] of 7.77% and a Measured conc [3, 38] of 10.78 µM. It also gave a Bias [3, 39] of 2.48%, a Measured conc [3, 39] of 0.10 µM and a Bias [3, 40] of 3.25%. For the same compound, the Measured conc [3, 40] was 1.03 µM, the Bias [3, 41] was 1.11% and the Measured conc [3, 41] was 10.11 µM. The Bias [3, 42] was -7.15%, the Measured conc [3, 42] was 0.093 µM and the Bias [3, 43] was -4.26%. It also gave a Measured conc [3, 43] of 0.96 µM, a Bias [3, 44] of 5.64% and a Measured conc [3, 44] of 10.56 µM.
